Measured values taken from patent publication US20260207769A1, “ANTIBODY DRUG CONJUGATES” (YALE UNIVERSITY, priority 2022, published 2026).

Tests used:
[1] = system: PEO-1 (BRCA2^−/−) ovarian adenocarcinoma cells; experiment: Cell viability of PEO-1 cells; assay type: cell-based; conditions: PEO-1 (BRCA2-/-) cells, at 7 days
From the text: Cancer cell lines were acquired from ATCC and cultured according to well known methods in the art. Treatment with cytotoxic agents, antibodies, or ADCs refers to the addition of the cytotoxic agent, antibody or ADC (i.e., DM1 or cD31N-DM1, etc.) to the culture media for a set duration.
The effects of longer-term treatment with SN38 and cD31N-SN38 on PEO-4 (WT) and PEO-1 (BRCA2^−/−) ovarian cancer cells were investigated.

[2] = system: DNA damage response proteins such as γH2AX, p-ATM, and p-ATR; experiment: Western blot of DNA damage response proteins in BRCA2-/- DLD-1 cells; assay type: cell-based, human
Experimental: SN38 causes DNA damage via inhibition of topoisomerase I. Therefore, DNA damage was measured in both wild-type (WT) and BRCA2 deficient (BRCA2′) DLD-1 cells by induction of γH2AX after treatment with one of the following: no treatment (NT), SN38 alone (SN38), wild-type 3E10 antibody alone (cWT), 3E10-cD31N antibody alone, cWT-SN38 conjugate, or cD31N-SN38 conjugate. After treatment with 100 nM of the antibody or conjugate for 48 hours, the DLD-1 cells were collected for Western blot analysis to measure 7H2AX protein levels. […] These findings were consistent in both WT and BRCA2^−/− DLD-1 cells, but γH2AX protein levels were elevated across all groups in BRCA2^−/− DLD-1 cells.
DNA damage caused by SN38 or 3E10-SN38 conjugates in WT and BRCA2^−/− DLD-1 cells was assessed by measuring the levels of proteins involved in DNA damage response, p-ATM, p-ATR, pBRCA1, Topoisomerase 1 (TOPO-1), pChk2, pChk1, γH2AX and H2AX. DLD-1 cells were treated with 100 nM of SN38, cWT antibody, cD31N antibody, cWT-SN38 conjugate, or cD31N-SN38 conjugate and collected for Western blot after 24 (FIG. 21A) and 48 hours (FIG. 21B). No treatment (NT) was used as control.

WT DLD-1 cells = experiment: Single 24 hour treatment, long-term viability of WT DLD-1 cells; assay type: cell-based, human; conditions: WT DLD-1, 24 hour treatment, days 3, 5 and 7
Experimental: (§1) The effects of treatment with the SN38 or 3E10-SN38 conjugates on the colorectal cancer DLD-1 cell line were investigated. WT and BRCA2^−/− deficient DLD-1 cells were tested. FIG. 13 provides the study protocol and timeline. Each well of a 96-well plate was loaded with 1000 DLD-1 cells. 24 hours post-plating, cells were treated with different concentrations of cWT-SN38 conjugate, cD31N-SN38 conjugate, or SN38 for 24 hours. After treatment, the media was replaced with fresh treatment-free media and was not changed again. Cell viability and half maximal effective concentration (EC50) were tracked every 48 hours post-treatment on days 3, 5, and 7. Half maximal effective concentration (EC50) is a measure of the concentration of a drug, antibody or toxicant which induces a response halfway between the baseline and maximum after a specified exposure time.

BRCA2^−/− DLD-1 cells [3] = experiment: Single 24 hour treatment, long-term viability of BRCA2-/- DLD-1 cells; assay type: cell-based, human; conditions: BRCA2-/- DLD-1, 24 hour treatment, days 3, 5 and 7
Experimental: as §1

BRCA2^−/− DLD-1 cells [4] = experiment: Clonogenic assay in BRCA2-/- DLD-1 cells; assay type: cell-based, human; conditions: BRCA2-/- DLD-1, after 10 days
Experimental: Clonogenic or colony formation assays are in vitro assays that can measure the survival or growth of cells on a single-cell level based on the ability of a single cell to grow into a colony. WT or BRCA2^−/− DLD-1 cells were plated with different concentrations of SN38, 3E10 antibody, or 3E10-SN38 conjugate added into the clonogenic assay media. After 7 days for WT cells or 10 days for BRCA2^−/− cells, colony numbers were counted to quantify DLD-1 cell survival. […] Consistent with earlier results, DLD-1 cell survival was concentration-dependent.

[5] = system: DNA damage response proteins, such as 7H2AX, p-ATM, and p-ATR; experiment: Western blot of DNA damage response proteins in DLD-1 cells after 96 hours; assay type: cell-based, human; conditions: 100 nM
Experimental: To measure the expression of DNA damage response proteins at a later time point, DLD-1 cells were treated with 100 nM of SN38, cD31N antibody, or cD31N-SN38 conjugate and collected for Western blot after 96 hours (4 days). Results at the 96 hour time point were consistent with the 24 and 48 hour results.

[6] = system: HCT116 colorectal cancer cells; experiment: Cell viability of WT HCT116 cells; assay type: cell-based
Experimental: WT and mutant IDH1 (IDH1^mut) HCT116 cells were treated with different concentrations of SN38, cD31N antibody, or cD31N-SN38 conjugate. The effects of 3E10-cD31N-SN38 conjugate treatment on HCT116 WT and HCT116IDH1^mut were investigated.

[7] = system: LoVo colorectal cancer cells; experiment: Cell viability of LoVo cells after 7 days of treatment; assay type: cell-based
Experimental: LoVo colorectal cancer cells were treated with SN38, cD31N antibodies, V66 3E10 antibodies, and conjugates of the present disclosure. […] The EC50 values were calculated and are set forth below in Table 3.

[8] = system: SKOV3 ovarian cancer cells; experiment: Cell viability of SKOV3 cells at 7 days of treatment; assay type: cell-based
Experimental: The effect of SN38 and 3E10-SN38 conjugates were investigated in SKOV3 ovarian cancer cells. SKOV3 cells were treated with SN38, various 3E10 antibodies and 3E10-SN38 conjugates.
EC50 values are also included.
The EC50 values were calculated and are set forth below in Table 4.

[9] = system: DNA damage response proteins; experiment: Western blot of DNA damage response proteins in SKOV3 cells; assay type: cell-based; conditions: 100 nM, 24, 48 and 72 hours
Experimental: SKOV3 ovarian cancer cells were treated with 100 nM of SN38, cD31N antibody, or cD31N-SN38 as indicated and collected at 24, 48, and 72 hours of treatment for Western blot analysis to measure specific protein markers of DNA damage response as previously described. […] In particular, 7H2AX levels increased over time.

[10] = system: DNA damage response proteins; experiment: Western blot of DNA damage response proteins in PEO-1 cells; assay type: cell-based; conditions: 100 nM, 24 and 48 hours
Experimental: PEO-4 (WT) and PEO-1 (BRCA2^−/−) ovarian cancer cells were treated with 100 nM of SN38, cD31N or cD31N-SN38 and collected at 24 and 48 hours of treatment for Western blot analysis to measure specific protein markers of DNA damage response as previously described.

SMILES: CCc1c2c(nc3ccc(O)cc13)-c1cc3c(c(=O)n1C2)COC(=O)[C@]3(O)CC [SN38, SN-38]
- cell viability [1]: reduced cell viability in a concentration-dependent manner resulting in low EC50 values
- protein levels of DNA damage response proteins ([2]; BRCA2-/- DLD-1, 100 nM, 24 and 48 hour time points): increased the protein levels of DNA damage response proteins such as γH2AX, p-ATM, and p-ATR
- TOPO-1 levels ([2]; BRCA2-/- DLD-1, 100 nM, 24 and 48 hours): reduced TOPO-1 levels
- γH2AX induction (Western blot) ([2]; BRCA2-/- DLD-1, 100 nM, 24 hours (Example 10)): 7H2AX was induced
- γH2AX protein levels (Western blot) ([2]; BRCA2-/- DLD-1 cells, 100 nM, 48 hours (Example 5)): induced the highest levels of γH2AX expression
- EC50 values compared between treatments (WT DLD-1 cells): lower EC50 value than both 3E10-SN38 conjugates
- EC50 values compared between treatments (BRCA2^−/− DLD-1 cells [3]): lower EC50 value than both 3E10-SN38 conjugates
- cell survival (colony numbers) (BRCA2^−/− DLD-1 cells [4]): reduced cell survival
- TOPO-1 levels [5]: TOPO-1 levels were also reduced
- expression of DNA damage response proteins [5]: increased expression of DNA damage response proteins
- cell viability ([6]; 5 days of treatment): substantial loss in cell viability
- cell viability ([6]; 7 days of treatment): substantial loss in cell viability
- EC50 [7]: 5.8 nM
- cell viability [7]: strongest effect on cell viability
- cell viability at the highest concentrations [8]: about 0%
- EC50 ([8]; 7 days of treatment): 2.8 nM
- protein expression of DNA damage response proteins [9]: protein expression of DNA damage response proteins was increased
- protein expression of DNA damage response proteins [10]: protein expression of DNA damage response proteins was increased
